The nature of series [1]: Octanol-water partition coefficient, log P of the compound. It is filed as physicochemical.
The subject of another series is SK-BR-3. Put plainly: Cytotoxicity against human SKBR3 cells assessed as reduction in cell viability after 72 hrs by MTT assay. The note with it: SK-BR-3, 72 h. It is filed as functional, cell-based. For orientation: Tetrazolium assays rely on reduction of a dye to a coloured formazan, in cell work by metabolically active cells.
A short description of series [2]: Metabolic stability in rat liver microsomes assessed as parent compound remaining after 90 mins in presence of NADPH by HPLC analysis. It is filed as ADME, microsome. As to conditions: read-out: Stability. Background: Liver microsomes are a subcellular fraction often used to study metabolism.
The next series deals with A549. Put plainly: Effect on microtubule formation in human A549 cells assessed as morphological changes at 1 to 10 umol after 18 hrs. In kind it is cell-based.
A short description of series [3]: Selectivity index, ratio of IC50 for human HL7702 cells to IC50 for human SMCC7721 cells. It is filed as toxicity. As to conditions: HL7702 cells versus SMCC7721 cells, read-out: Ratio IC50.
Series [4] can be described thus: Metabolic stability in mouse liver microsomes assessed as parent compound remaining after 120 mins in presence of NADPH by HPLC analysis. In kind it is ADME, microsome. The note with it: read-out: Stability.
The nature of series [5]: Selectivity index, ratio of IC50 for HFF cells to IC50 for human SKBR3 cells. It is filed as toxicity. The note with it: HFF cells versus SKBR3 cells, read-out: Ratio IC50.
The nature of series [6]: Selectivity index, ratio of IC50 for human HL7702 cells to IC50 for human HCT116 cells. In kind it is toxicity. The note with it: HL7702 cells versus HCT116 cells, read-out: Ratio IC50.
Another series concerns PC-3. Put plainly: Cytotoxicity against human PC3 cells assessed as reduction in cell viability after 72 hrs by MTT assay. It is filed as functional, cell-based. As to conditions: PC-3, 72 h.
Series [7] in a line: Metabolic stability in rat liver microsomes assessed as parent compound remaining after 60 mins in presence of NADPH by HPLC analysis. It is filed as ADME, microsome. The note with it: read-out: Stability.
Series [8] concerns MDA-MB-231. Put plainly: Induction of apoptosis in human MDA-MB-231 cells assessed as early apoptotic cells at 0.1 uM after 24 hrs by Annexin V-FITC/propidium iodide staining based flow cytometry (reference value: 2.33%). It is filed as functional. For orientation: Flow cytometry measures light scatter and fluorescence of single cells or particles in a stream.
A short description of series [9]: Metabolic stability in rat liver microsomes assessed as parent compound remaining after 150 mins in presence of NADPH by HPLC analysis. As to conditions: read-out: Stability. In kind it is ADME, microsome.
Series [10] is described as follows: Selectivity index, ratio of IC50 for HFF cells to IC50 for human LNCAP cells. It is filed as toxicity. The note with it: HFF cells versus LNCAP cells, read-out: Ratio IC50.
The subject of series [11] is MDA-MB-231. Put plainly: Induction of apoptosis in human MDA-MB-231 cells assessed as dead cells at 1 uM after 24 hrs by Annexin V-FITC/propidium iodide staining based flow cytometry (reference value: 2.15%). It is filed as functional.
Series [12] in a line: Metabolic stability in dog liver microsomes assessed as parent compound remaining after 60 mins in presence of NADPH by HPLC analysis. In kind it is ADME, Canis lupus familiaris, microsome. As to conditions: read-out: Stability.
The nature of series [13]: Selectivity index, ratio of IC50 for HFF cells to IC50 for human A549 cells. It is filed as toxicity. As to conditions: HFF cells versus A549 cells, read-out: Ratio IC50.

The structures appear in SMILES notation. Calls of active or inactive are those of the source. No cut-off for these calls is given here.

For the compound `COC(=O)[C@]1(C)CCC[C@]2(C)c3ccc(C(C)C)c(NC(=O)Cn4cc(-c5cccc(NC(=O)OC(C)(C)C)c5)nn4)c3CC[C@@H]12`, in series [1], the logP was found to be 6.07. The IC50 in the series on SK-BR-3 and in the series on PC-3 was 0.9 µM throughout. In series [2], the remaining at 1.5 h is 70.5%. The outcome in the series with A549 was inactive. For the same compound, the selectivity ratio was found to be 7.6 in [3]; 5.8 in [5]; 7.9 in [6]; 8.6 in series [10]; 4.2 in [13]. In addition, the remaining at 2 h in series [4] was determined as 43.7%. For the same compound, the remaining at 1 h in series [7] is 79.3%; in series [12] it was 59%. Further, the figures for the Activity with MDA-MB-231 [8] and in the series on MDA-MB-231 [11] were 4.32% and 7.01%, respectively. The remaining at 2.5 h in series [9] was 42.1%.

In general, logP refers to a log measure of how a compound divides between an organic and an aqueous phase. What is called IC50 is the concentration at which inhibition is half-maximal.

The values above are taken from ChEMBL document CHEMBL4130367, “Click chemistry-based synthesis and anticancer activity evaluation of novel C-14 1,2,3-triazole dehydroabietic acid hybrids” (Eur J Med Chem, 2017).
